Test results: paper PMC2820425 (Molecular Biology of the Cell, 2010)

T1: rat dynamin (Rattus norvegicus, UniProt P21575)
T1 sequence (P21575 1-864): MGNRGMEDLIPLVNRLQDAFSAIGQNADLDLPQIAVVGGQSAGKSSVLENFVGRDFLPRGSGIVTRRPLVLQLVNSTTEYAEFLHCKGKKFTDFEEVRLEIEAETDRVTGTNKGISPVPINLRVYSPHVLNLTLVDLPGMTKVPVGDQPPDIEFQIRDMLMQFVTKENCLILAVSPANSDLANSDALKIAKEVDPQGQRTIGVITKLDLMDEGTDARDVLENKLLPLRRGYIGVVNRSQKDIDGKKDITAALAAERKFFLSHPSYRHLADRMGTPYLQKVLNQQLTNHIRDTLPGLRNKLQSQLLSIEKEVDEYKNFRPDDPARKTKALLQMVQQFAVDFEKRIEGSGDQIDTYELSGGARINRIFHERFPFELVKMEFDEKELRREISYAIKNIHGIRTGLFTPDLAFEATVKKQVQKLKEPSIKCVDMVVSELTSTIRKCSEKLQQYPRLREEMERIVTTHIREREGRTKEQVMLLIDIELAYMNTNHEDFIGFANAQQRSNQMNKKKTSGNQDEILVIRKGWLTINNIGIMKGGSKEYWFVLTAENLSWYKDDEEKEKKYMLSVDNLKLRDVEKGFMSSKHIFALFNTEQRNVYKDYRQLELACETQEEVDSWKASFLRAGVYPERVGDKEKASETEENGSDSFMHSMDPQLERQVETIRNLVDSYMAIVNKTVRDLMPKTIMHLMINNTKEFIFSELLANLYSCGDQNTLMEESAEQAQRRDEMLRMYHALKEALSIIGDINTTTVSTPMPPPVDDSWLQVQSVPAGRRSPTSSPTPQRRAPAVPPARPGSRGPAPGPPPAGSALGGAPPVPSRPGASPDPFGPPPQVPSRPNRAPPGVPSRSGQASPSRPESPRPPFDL

T2: DYN-1 (Caenorhabditis elegans, UniProt P39055)
T2 sequence (P39055 1-830): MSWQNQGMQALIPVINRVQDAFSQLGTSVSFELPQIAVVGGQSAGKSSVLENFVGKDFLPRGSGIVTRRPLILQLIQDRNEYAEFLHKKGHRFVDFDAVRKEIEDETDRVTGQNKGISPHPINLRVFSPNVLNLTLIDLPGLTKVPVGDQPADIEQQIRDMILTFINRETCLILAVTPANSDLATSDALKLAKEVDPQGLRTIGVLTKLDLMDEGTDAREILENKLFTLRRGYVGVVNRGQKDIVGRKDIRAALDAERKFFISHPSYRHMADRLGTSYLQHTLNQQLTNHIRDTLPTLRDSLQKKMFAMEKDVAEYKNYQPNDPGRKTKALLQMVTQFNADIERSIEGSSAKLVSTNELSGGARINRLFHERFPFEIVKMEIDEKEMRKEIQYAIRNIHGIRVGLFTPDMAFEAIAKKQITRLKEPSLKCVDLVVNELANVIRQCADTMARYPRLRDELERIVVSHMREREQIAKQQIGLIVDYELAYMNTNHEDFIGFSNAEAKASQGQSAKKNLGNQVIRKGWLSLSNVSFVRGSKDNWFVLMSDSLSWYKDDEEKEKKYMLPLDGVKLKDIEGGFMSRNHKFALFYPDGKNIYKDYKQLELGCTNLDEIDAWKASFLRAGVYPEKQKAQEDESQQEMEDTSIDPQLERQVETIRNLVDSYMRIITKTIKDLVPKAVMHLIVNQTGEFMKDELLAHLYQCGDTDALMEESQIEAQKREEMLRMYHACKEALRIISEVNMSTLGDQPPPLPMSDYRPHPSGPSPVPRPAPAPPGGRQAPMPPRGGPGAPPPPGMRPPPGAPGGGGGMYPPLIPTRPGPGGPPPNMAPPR


How the values were obtained:
rat dynamin = biological target: T1, rat dynamin; experiment: […] release from [γ-32P]GTP, charcoal assay; type: biochemical; details: 1 mM GTP, 150 mM NaCl, with or without lipid; labelled compound
DYN-1 = biological target: T2, DYN-1; experiment: […] release from [γ-32P]GTP, charcoal assay; type: biochemical; details: 1 mM GTP, 150 mM NaCl, with or without lipid; labelled compound
[1] = biological target: the molecule itself; experiment: cryo-TEM of protein incubated with liposomes

| Molecule | 32P release from [γ-32P]GTP, charcoal assay (rat dynamin) | 32P release from [γ-32P]GTP, charcoal assay (DYN-1) | binding result [1] |
| --- | --- | --- | --- |
| Nc1nc2c(ncn2[C@@H]2O[C@H](COP(=O)(O)OP(=O)(O)OP(=O)(O)O)[C@@H](O)[C@H]2O)c(=O)[nH]1 [GTP] | DYN-1 displayed a low basal-level GTP hydrolysis activity as rat dynamin did | C. elegans DYN-1 displayed a low basal-level GTP hydrolysis activity | – |
| recombinant DYN-1(G40E) purified from SF21 insect cells (natural protein, C. elegans, UniProt P39055 1-830, looked up) MSWQNQGMQALIPVINRVQDAFSQLGTSVSFELPQIAVVEGQSAGKSSVLENFVGKDFLPRGSGIVTRRPLILQLIQDRNEYAEFLHKKGHRFVDFDAVRKEIEDETDRVTGQNKGISPHPINLRVFSPNVLNLTLIDLPGLTKVPVGDQPADIEQQIRDMILTFINRETCLILAVTPANSDLATSDALKLAKEVDPQGLRTIGVLTKLDLMDEGTDAREILENKLFTLRRGYVGVVNRGQKDIVGRKDIRAALDAERKFFISHPSYRHMADRLGTSYLQHTLNQQLTNHIRDTLPTLRDSLQKKMFAMEKDVAEYKNYQPNDPGRKTKALLQMVTQFNADIERSIEGSSAKLVSTNELSGGARINRLFHERFPFEIVKMEIDEKEMRKEIQYAIRNIHGIRVGLFTPDMAFEAIAKKQITRLKEPSLKCVDLVVNELANVIRQCADTMARYPRLRDELERIVVSHMREREQIAKQQIGLIVDYELAYMNTNHEDFIGFSNAEAKASQGQSAKKNLGNQVIRKGWLSLSNVSFVRGSKDNWFVLMSDSLSWYKDDEEKEKKYMLPLDGVKLKDIEGGFMSRNHKFALFYPDGKNIYKDYKQLELGCTNLDEIDAWKASFLRAGVYPEKQKAQEDESQQEMEDTSIDPQLERQVETIRNLVDSYMRIITKTIKDLVPKAVMHLIVNQTGEFMKDELLAHLYQCGDTDALMEESQIEAQKREEMLRMYHACKEALRIISEVNMSTLGDQPPPLPMSDYRPHPSGPSPVPRPAPAPPGGRQAPMPPRGGPGAPPPPGMRPPPGAPGGGGGMYPPLIPTRPGPGGPPPNMAPPR | – | – | binds |
